Data taken from patent US20080027141A1, “1,3-Dihydroxyl-9,10-anthraquinone and 3-[(3-amino)-propoxy]- 9,10-anthraquinone derivatives and pharmaceutical compositions comprising the same” (Kaohsiung Medical University, priority 2006, published 2008).
Where two headings read alike, the source gives them in different places.

How the values were obtained:
[1] = test system: HepG2 cells (human hepatoma); experiment: In vitro anticancer assay (cytotoxicity), MTT, HepG2; settings: for EC50: Homo sapiens, HepG2, read-out: Cytotoxicity ED50, HepG2; for Cytotoxic activity against HepG2 cells (in words): in vitro
Experimental: (§1) For the microassay, the growth medium was supplemented with 10 mM HEPES buffer (pH 7.3) and incubated at 37° C. in a CO2 incubator.
(§2) The cytotoxicity was determined by colorimetric MTT (3-(4,5-dimethylthiazole-2-yl)-2,5-diphenyl-1H-tetrazolium bromide)(Sigma, St. Louis, Mo.) assay as described previously (Wei, Bai-Luh et al. (2000), Eur. J. Med. Chem., 35, 1089-1098). Briefly, cells (5×10^3/well) were plated in 96-well plates and incubated in medium for 6 h, followed by addition of serial dilutions (50 μL/well) of each of the tested compounds. After incubation at 37° C. for 5 or 6 days, the cells were pulsed with 10 μL of MTT (5 mg/mL) and incubated for an additional 4 h at 37° C. Reduced MTT was measured spectrophotometrically using a Dynatech MR 5000 microplate reader (Dynatech Laboratories, Va.) at 550 nm after lysis of cells with 100 μL of 10% SDS in 0.01 M HCl. Control wells contained medium plus cells (total absorbance) or medium alone (background absorbance). Cell death was calculated as the percentage of MTT inhibition:
(§3) In the experiment, 5-fluorouracil(5-Fu) was used as a positive control.

[2] = test system: Hep3B cells (human hepatoma); experiment: In vitro anticancer assay (cytotoxicity), MTT, Hep3B; settings: for EC50: Homo sapiens, Hep3B, read-out: Cytotoxicity ED50, Hep3B
Experimental: as §1, §2, §3

[3] = test system: HT-29 cells (human colorectal adenocarcinoma); experiment: In vitro anticancer assay (cytotoxicity), MTT, HT-29; settings: for EC50: Homo sapiens, HT-29, read-out: Cytotoxicity ED50, HT-29
Experimental: as §1, §2, §3

[4] = test system: MCF-7 cells (human breast adenocarcinoma); experiment: In vitro anticancer assay (cytotoxicity), MTT, MCF-7; settings: for EC50: Homo sapiens, MCF7, read-out: Cytotoxicity ED50, MCF-7; for Cytotoxic activity against MCF-7 cells (in words): in vitro
Experimental: as §1, §2, §3

[5] = test system: HT-29 cells (human colorectal adenocarcinoma)
Experimental: as §1, §2, §3

[6] = test system: HepG2 cells (human hepatoma)
Experimental: as §1, §2, §3

[7] = test system: Hep3B cells (human hepatoma)
Experimental: as §1, §2, §3

[8] = test system: HepG2 cells (human hepatoma); settings: Wei, Bai-Luh et al. (2000); read-out: ED50, HepG2 (applicants' earlier study); cited from earlier work
[9] = test system: Hep3B cells (human hepatoma); settings: Wei, Bai-Luh et al. (2000); read-out: ED50, Hep3B (applicants' earlier study); cited from earlier work
MCF-7 cells [10] = experiment: Flow cytometry analysis (cell cycle, sub-G1, propidium iodide); type: cell-based, human
Experimental: DNA contents were analyzed by flow cytometry, and apoptosis was measured by the accumulation of sub-G1 DNA contents in cells. Results were representative of three independent experiments; and
Flow cytometry was used to determine the change of cell cycle of human cancer cells caused by the treatment of a compound according to this invention.
MCF cells (1×10^4 cells/mL) were treated with various concentrations (6.9, 13.7, and 27.5 μM) of Compound 16 for different time periods (24 h, 48 h and 72 h), followed by washing with PBS so as to terminate the reaction. After fixation with 4% paraformaldehyde/PBS (pH 7.4) at room temperature for 30 min, the cells were centrifuged at 1,000 rpm for 10 min and then permeabilized with 0.1% Triton-X-100/0.1% sodium citrate at 4° C. for 2 min. Subsequently, propidium iodide (Sigma) in PBS (10 μg/mL) was added to stain the cells at 37° C. for 30 min. The intensity of fluorescence was measured with a FACScan flow cytometer (Becton Dickinson, Mountain View, Calif.). A minimum of 5000 cell counts was collected for the analysis by LYSIS II Software.
It has been recognized that apoptotic cells have reduced DNA stainability with a variety of fluorochromes (Ojeda, F. et al. (1990), Cell Immunol., 125:535-539; Afanasev, V. N. et al. (1986), FEBS Lett., 194: 347-350). The appearance of cells with low DNA stainability forms a “sub-G1 peak”, which has been considered to be the hallmark of cell death by apoptosis (Darzynkiewicz, Z. et al. (1992), Cytometry, 13, 795-808). […] In this invention, the applicants proposed that the NHA derivatives might induce cell death by the same way. MCF-7 cells were treated with different concentrations of representative Compound 16 for different time periods.

MCF-7 cells [11] = experiment: DNA fragmentation assay (agarose gel electrophoresis); type: cell-based, human; settings: 48 and 72 h incubation, 6.9, 13.7 and 27.5 μM
Experimental: Results were representative of three independent experiments.
DNA fragmentation in general is used to characterize cell death by apoptosis (Wyllic, A. H. et al. (1980), Int. Rev. Cytol., 68:251-306; Arends, M. J. and Wyllic, A. H. (1991), Int. Rev. Exp. Pathol., 32:223-254). Apoptosis of MCF-7 cells after treatment with the representative Compound 16 was also studied by DNA fragmentation assay.
MCF cells (1×10^4 cells/mL) in 150-mm plates were treated with various concentrations (6.9, 13.7, and 27.5 μM) of Compound 16 for different time periods (24 h, 48 h and 72 h), followed by washing with PBS so as to terminate the reaction. After the addition of 100 μL lysis buffer [1% of NP-40 (Sigma) in 20 mM EDTA, 50 mM Tris-HCl, pH 7.5] and mixing, the resultant cell lysates were centrifuged at 14,000 rpm for 5 min and the supernatants were collected. The supernatants were incubated with 50 μL of RNase A (20 mg/mL) and 20 μL of SDS (10%) at 56° C. for 2 h. Thereafter, 35 μL of proteinase K (20 mg/mL) was added and the resultant mixture was incubated at 37° C. overnight. DNA fragments were precipitated after the addition of 150 μL of 10M NH4OAc and 1.2 mL of 100% ethanol at −20° C. overnight. After centrifuging and drying, the thus-obtained DNA pellets were re-suspended in 15 μL Tris-EDTA buffer and electrophoresed on a 1% agarose gel in TBE buffer at 30 V for 8 h. […]

[12] = test system: several cancer cell lines; experiment: Cytotoxic effects against several cancer cell lines in vitro; type: cell-based
Experimental: The cytotoxicity was determined by colorimetric MTT (3-(4,5-dimethylthiazole-2-yl)-2,5-diphenyl-1H-tetrazolium bromide)(Sigma, St. Louis, Mo.) assay as described previously (Wei, Bai-Luh et al. (2000), Eur. J. Med. Chem., 35, 1089-1098). Briefly, cells (5×10^3/well) were plated in 96-well plates and incubated in medium for 6 h, followed by addition of serial dilutions (50 μL/well) of each of the tested compounds. After incubation at 37° C. for 5 or 6 days, the cells were pulsed with 10 μL of MTT (5 mg/mL) and incubated for an additional 4 h at 37° C. Reduced MTT was measured spectrophotometrically using a Dynatech MR 5000 microplate reader (Dynatech Laboratories, Va.) at 550 nm after lysis of cells with 100 μL of 10% SDS in 0.01 M HCl. Control wells contained medium plus cells (total absorbance) or medium alone (background absorbance).

[13] = test system: MCF-7 cells (human breast adenocarcinoma)
Experimental: as §1, §2, §3

With CC(C)=CCc1c(O)cc(O)c2c1C(=O)c1ccccc1C2=O [Compound 5, 1,3-Dihydroxy-4-prenyl-9,10-anthraquinone] the EC50 [1] was 1.23 ± 0.05 µM, the “Cytotoxic activity against HepG2 cells (in words)” value [1] was “potent cytotoxicity” and the EC50 [2] was 9.09 µM. For the same compound, the EC50 [3] was 56.2 µM and the EC50 [4] was 172 µM.

In the case of CCCCNCCCOc1ccc2c(c1)C(=O)c1ccccc1C2=O [Compound 12, 3-[3-(Butylamino)-propoxy]-9,10-anthraquinone], the EC50 [1] is reported as 7.12 µM, the EC50 [2] is reported as 14.2 µM and the EC50 [3] is reported as 14.5 µM. The EC50 [4] was 10.4 µM.

CCCNCCCOc1ccc2c(c1)C(=O)c1ccccc1C2=O [Compound 10, 3-[3-(Propylamino)-propoxy]-9,10-anthraquinone] gave an EC50 [1] of 8.92 µM, an EC50 [2] of 12.4 µM and an EC50 [3] of 6.19 µM. It also gave an EC50 [4] of 8.36 µM.

With O=C1c2ccccc2C(=O)c2cc(OCCCBr)ccc21 [Compound 4, 3-(3-bromopropoxy)-9,10-anthraquinone] the “Cytotoxic activity against HT-29 cells (in words)” value [5] was “no significant cytotoxic activity”, the “Cytotoxic activity against HepG2 cells (in words)” value [6] was “no significant cytotoxic activity” and the “Cytotoxic activity against Hep3B cells (in words)” value [7] was “no significant cytotoxic activity”.

With O=C1c2ccccc2C(=O)c2c(O)cc(OCCCBr)cc21 [Compound 2, 1-hydroxy-3-(3-bromopropoxy)-9,10-anthraquinone] the “Cytotoxic activity against HT-29 cells (in words)” value [5] was “no significant cytotoxic activity”, the “Cytotoxic activity against HepG2 cells (in words)” value [6] was “no significant cytotoxic activity” and the “Cytotoxic activity against Hep3B cells (in words)” value [7] was “no significant cytotoxic activity”.

For CN(C)CCCOc1cc(O)c2c(c1)C(=O)c1ccccc1C2=O [Compound 19, 1-hydroxy-3-[3-(dimethylamino)-propoxy]-9,10-anthraquinone], the EC50 [8] is listed as about 2.6 µM and the EC50 [9] is listed as about 7.1 µM.

For O=C1c2ccccc2C(=O)c2cc(O)ccc21 [Compound 3, 3-hydroxy-9,10-anthraquinone], the “Cytotoxic activity against HepG2 cells (in words)” value [1] was “no significant cytotoxic activity”, the “Cytotoxic activity against Hep3B cells (in words)” value ([2]; in vitro) was “no significant cytotoxic activity” and the “Cytotoxic activity against HT-29 cells (in words)” value ([3]; in vitro) was “no significant cytotoxic activity”.

With CN1CCN(CCCOc2ccc3c(c2)C(=O)c2ccccc2C3=O)CC1 [Compound 16] the EC50 [1] was 8.41 µM, the cell cycle effect (MCF-7 cells [10]; 6.9, 13.7, 27.5 μM) was “arrest G2/M and S phases” and the “sub-G1 peak in DNA histograms” value (MCF-7 cells [10]; 6.9, 13.7, 27.5 μM, 24, 48, 72 h) was “detected”. For the same compound, the maximum apoptosis cells (MCF-7 cells [10]; at 72 h) was 19.97%, the “Cytotoxic activity against HT-29 cells (in words)” value [5] was “potent cytotoxic activity” and the “Cytotoxic activity against HepG2 cells (in words)” value [6] was “less potent cytotoxic activity”. The “Cytotoxic activity against Hep3B cells (in words)” value [7] was “less potent cytotoxic activity”, the EC50 [2] was 13.7 µM and the DNA fragmentation (MCF-7 cells [11]) was “significantly observed”. The EC50 [3] was 4.67 µM, the EC50 [4] was 3.02 µM and the “Cytotoxic activity against MCF-7 cells (in words)” value [4] was “potent cytotoxic activity”.

For O=c1[nH]cc(F)c(=O)[nH]1 [Compound 5-FU, 5-fluorouracil, reference compound], the EC50 [1] was 0.25 µM, the EC50 [2] was 0.55 µM and the EC50 [3] was 0.57 µM.

In the case of CC(C)(C)NCCCOc1cc(O)c2c(c1)C(=O)c1ccccc1C2=O [Compound 7, 3-[3-(tert-Butylamino)-propoxy]-1-hydroxy-9,10-anthraquinone], the EC50 [1] is reported as 5.3 µM, the EC50 [2] is reported as 6.8 µM and the EC50 [3] is reported as 7.93 µM.

With O=C1c2ccccc2C(=O)c2c(O)cc(O)cc21 [Compound 1, 1,3-dihydroxy-9,10-anthraquinone] the “Cytotoxic effects against several cancer cell lines (in words)” value [12] was “failed to show cytotoxic effects”.

In the case of CC(C)NCCCOc1ccc2c(c1)C(=O)c1ccccc1C2=O [Compound 11, 3-[3-(Isopropylamino)-propoxy]-9,10-anthraquinone], the EC50 [1] is reported as 5.39 µM, the “Cytotoxic activity against HepG2 cells (in words)” value [6] is reported as “potent cytotoxic activity” and the EC50 [2] is reported as 11.5 µM. The EC50 [3] was 7.12 µM and the EC50 [4] was 11.5 µM.

In the case of CC(C)CNCCCOc1ccc2c(c1)C(=O)c1ccccc1C2=O [Compound 13, 3-[3-(Isobutylamino)-propoxy]-9,10-anthraquinone], the EC50 [1] is reported as 10.4 µM, the EC50 [2] is reported as 9.26 µM and the EC50 [3] is reported as 7.72 µM. For the same compound, the EC50 [4] was 14.2 µM.

Compound CC(C)(C)NCCCOc1ccc2c(c1)C(=O)c1ccccc1C2=O [Compound 14] has an EC50 [5] of 12.9 µM, an EC50 [6] of 17.5 µM and an EC50 [7] of 23.2 µM. For the same compound, the EC50 [13] was 20.8 µM.

CCCCNCCCOc1cc(O)c2c(c1)C(=O)c1ccccc1C2=O [Compound 8, 3-[3-(Butylamino)-propoxy]-1-hydroxy-9,10-anthraquinone] gave an EC50 [1] of 4.42 µM, an EC50 [2] of 7.93 µM and an EC50 [3] of 6.52 µM.

CCN(CC)CCCOc1ccc2c(c1)C(=O)c1ccccc1C2=O [Compound 9, 3-[3-(Diethylamino)-propoxy]-9,10-anthraquinone] showed an EC50 [1] of 17.2 µM, an EC50 [2] of 12.8 µM and an EC50 [3] of 11.9 µM. The EC50 [4] was 16.1 µM.

For O=C1c2ccccc2C(=O)c2cc(OCCCNC3CCCCC3)ccc21 [Compound 15, 3-[3-(Cyclohexylamino)-propoxy]-9,10-anthraquinone], the EC50 [1] was 16 µM, the “Cytotoxic activity against HT-29 cells (in words)” value [5] was “stronger cytotoxic activities” and the “Cytotoxic activity against Hep3B cells (in words)” value [7] was “stronger cytotoxic activities”. For the same compound, the EC50 [2] was 4.96 µM, the EC50 [3] was 3.86 µM and the EC50 [4] was 5.79 µM. For the same compound, the “Cytotoxic activity against MCF-7 cells (in words)” value [4] was “stronger cytotoxic activities”.

In the case of CC(C)NCCCOc1cc(O)c2c(c1)C(=O)c1ccccc1C2=O [Compound 6, 1-Hydroxy-3-[3-(isopropylamino)-propoxy]-9,10-anthraquinone], the EC50 [1] is reported as 5.52 µM, the EC50 [2] is reported as 5.97 µM and the EC50 [3] is reported as 4.72 µM.
